Source: patent US20230295200A1 (REGENTS OF THE UNIVERSITY OF MICHIGAN, priority 2022, published 2023)

Assays:
STAT5A = biological target: T1, STAT5A (Homo sapiens, UniProt P42229); experiment: Fluorescence polarization (FP) binding assay, STAT5A; conditions: FP competition, 5 nM fluorescein-labeled tracer, 200 nM protein, PBS pH7.4
T1 sequence (P42229 1-794): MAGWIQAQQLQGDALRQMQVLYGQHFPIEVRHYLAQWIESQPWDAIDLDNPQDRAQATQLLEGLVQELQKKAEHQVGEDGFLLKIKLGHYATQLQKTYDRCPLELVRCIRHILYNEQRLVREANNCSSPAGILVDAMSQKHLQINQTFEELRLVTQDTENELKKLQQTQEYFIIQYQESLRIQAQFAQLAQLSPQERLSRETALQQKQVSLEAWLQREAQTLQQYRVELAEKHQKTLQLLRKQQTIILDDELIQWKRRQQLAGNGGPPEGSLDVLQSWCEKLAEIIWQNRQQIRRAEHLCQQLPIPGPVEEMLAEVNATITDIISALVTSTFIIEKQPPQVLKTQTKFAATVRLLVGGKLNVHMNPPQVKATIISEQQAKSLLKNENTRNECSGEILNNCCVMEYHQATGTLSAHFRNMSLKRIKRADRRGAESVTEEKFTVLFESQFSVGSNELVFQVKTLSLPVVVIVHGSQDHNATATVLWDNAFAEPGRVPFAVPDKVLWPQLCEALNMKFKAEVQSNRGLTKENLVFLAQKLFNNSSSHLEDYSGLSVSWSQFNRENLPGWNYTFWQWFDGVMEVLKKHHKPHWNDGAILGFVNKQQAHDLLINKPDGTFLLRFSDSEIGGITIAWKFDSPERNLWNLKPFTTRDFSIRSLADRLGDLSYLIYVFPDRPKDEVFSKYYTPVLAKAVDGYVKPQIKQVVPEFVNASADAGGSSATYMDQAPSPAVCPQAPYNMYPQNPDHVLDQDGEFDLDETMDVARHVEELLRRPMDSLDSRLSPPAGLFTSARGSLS
Method in brief: (§1)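 Competitive FP read-out with 5 nM fluorescein-labeled tracer and 200 nM STAT5 or STAT6 protein in PBS pH 7.4 containing 0.01% BGG, 0.01% Tween-20 and 2 mM DTT. Plates were shaken 15 min, then equilibrated 1 h at room temperature; inhibition constants came from nonlinear curve fitting.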

STAT6 protein = biological target: T2, STAT6 protein (Homo sapiens, UniProt P42226); experiment: Fluorescence polarization (FP) binding assay, STAT6; conditions: FP competition, 5 nM fluorescein-labeled tracer, 200 nM protein, PBS pH7.4; read-out: Binding STAT6
T2 sequence (P42226 1-847): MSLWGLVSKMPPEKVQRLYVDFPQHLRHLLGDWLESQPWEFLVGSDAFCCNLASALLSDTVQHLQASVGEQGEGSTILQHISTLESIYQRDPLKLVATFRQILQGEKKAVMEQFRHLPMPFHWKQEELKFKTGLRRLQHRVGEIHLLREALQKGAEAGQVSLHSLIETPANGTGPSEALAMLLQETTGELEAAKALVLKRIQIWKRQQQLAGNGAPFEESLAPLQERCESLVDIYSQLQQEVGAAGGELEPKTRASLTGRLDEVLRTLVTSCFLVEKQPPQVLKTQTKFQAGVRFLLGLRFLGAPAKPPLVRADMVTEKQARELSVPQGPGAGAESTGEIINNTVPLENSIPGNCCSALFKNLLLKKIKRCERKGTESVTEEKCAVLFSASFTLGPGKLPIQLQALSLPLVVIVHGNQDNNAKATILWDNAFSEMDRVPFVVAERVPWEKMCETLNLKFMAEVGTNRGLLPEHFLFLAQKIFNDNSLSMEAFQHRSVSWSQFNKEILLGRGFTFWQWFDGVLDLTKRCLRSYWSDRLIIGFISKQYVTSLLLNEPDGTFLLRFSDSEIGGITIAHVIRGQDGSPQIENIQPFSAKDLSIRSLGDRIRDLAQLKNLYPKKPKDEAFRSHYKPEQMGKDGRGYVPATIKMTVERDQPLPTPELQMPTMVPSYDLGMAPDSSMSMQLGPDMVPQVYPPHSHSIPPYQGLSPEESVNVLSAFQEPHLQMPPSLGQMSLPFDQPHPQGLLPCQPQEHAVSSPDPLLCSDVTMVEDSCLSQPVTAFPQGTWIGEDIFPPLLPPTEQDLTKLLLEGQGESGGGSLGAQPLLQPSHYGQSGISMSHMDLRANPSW
Method in brief: as §1

Compound	Ki (STAT5A) [µM]	Ki (STAT6 protein) [nM]
O=C(N[C@@H](CC1=CCN(Cc2ccccc2)CC1)C(=O)N1CCC[C@H]1C(=O)N1CCc2ccccc2C1)c1cc2cc(C(F)(F)P(=O)(O)O)ccc2[nH]1 [Compound 35, ((2-(((S)-3-(1-benzyl-1,2,3,6-tetrahydropyridin-4-yl)-1-oxo-1-((S)-2-(1,2,3,4-tetrahydroisoquinoline-2-carbonyl)pyrrolidin-1-yl)propan-2-yl)carbamoyl)-1H-indol-5-yl)difluoromethyl)phosphonic acid]	> 10	> 10000
O=C(N[C@@H](CC1CCNCC1)C(=O)N1CCC[C@H]1C(=O)N1CCc2ccccc2C1)c1cc2cc(C(F)(F)P(=O)(O)O)ccc2[nH]1 [Compound 36, (difluoro(2-(((S)-1-oxo-3-(piperidin-4-yl)-1-((S)-2-(1,2,3,4-tetrahydroisoquinoline-2-carbonyl)pyrrolidin-1-yl)propan-2-yl)carbamoyl)-1H-indol-5-yl)methyl)phosphonic acid]	> 10	> 10000
CC(C)(C)[C@H](NC(=O)c1cc2cc(C(F)(F)P(=O)(O)O)ccc2s1)C(=O)N1CCC[C@H]1C(=O)N(c1ccc(I)cc1)c1ccc(C(=O)OCc2ccccc2)cc1 [Compound 37, ((2-(((S)-1-((S)-2-((4-((benzyloxy)carbonyl)phenyl)(4-iodophenyl)carbamoyl)pyrrolidin-1-yl)-3,3-dimethyl-1-oxobutan-2-yl)carbamoyl)benzo[b]thiophen-5-yl)difluoromethyl)phosphonic acid]	1 to 10	100 to 1000
COC(=O)CCN(C(=O)[C@@H]1CCCN1C(=O)[C@@H](NC(=O)c1cc2cc(C(F)(F)P(=O)(O)O)ccc2s1)C(C)(C)C)c1ccccc1 [Compound 38, (difluoro(2-(((S)-1-((S)-2-((3-methoxy-3-oxopropyl)(phenyl)carbamoyl)pyrrolidin-1-yl)-3,3-dimethyl-1-oxobutan-2-yl)carbamoyl)benzo[b]thiophen-5-yl)methyl)phosphonic acid]	1 to 10	1000 to 10000
CC(C)(C)[C@H](NC(=O)c1cc2cc(C(F)(F)P(=O)(O)O)ccc2s1)C(=O)N1CCC[C@H]1C(=O)N(c1ccccc1)c1ccc(I)cc1 [Compound 39, (difluoro(2-(((S)-1-((S)-2-((4-iodophenyl)(phenyl)carbamoyl)pyrrolidin-1-yl)-3,3-dimethyl-1-oxobutan-2-yl)carbamoyl)benzo[b]thiophen-5-yl)methyl)phosphonic acid]	1 to 10	100 to 1000
CC(C)(C)[C@H](NC(=O)c1cc2cc(C(F)(F)P(=O)(O)O)ccc2[nH]1)C(=O)N1CCC[C@H]1C(=O)N(c1ccc(Cl)cc1)C1CCCCC1 [Compound 40, ((2-(((S)-1-((S)-2-((4-chlorophenyl)(cyclohexyl)carbamoyl)pyrrolidin-1-yl)-3,3-dimethyl-1-oxobutan-2-yl)carbamoyl)-1H-indol-5-yl)difluoromethyl)phosphonic acid]	1 to 10	100 to 1000
CNC(=O)c1ccc(N(C(=O)[C@@H]2CCCN2C(=O)[C@@H](NC(=O)c2cc3cc(C(F)(F)P(=O)(O)O)ccc3s2)C(C)(C)C)c2ccc(Cl)cc2)cc1 [Compound 44, ((2-(((S)-1-((S)-2-((4-chlorophenyl)(4-(methylcarbamoyl)phenyl)carbamoyl)pyrrolidin-1-yl)-3,3-dimethyl-1-oxobutan-2-yl)carbamoyl)benzo[b]thiophen-5-yl)difluoromethyl)phosphonic acid]	1 to 10	100 to 1000
CNC(=O)CCN(C(=O)[C@@H]1CCCN1C(=O)[C@@H](NC(=O)c1cc2cc(C(F)(F)P(=O)(O)O)ccc2s1)C(C)(C)C)c1ccc(Br)cc1 [Compound 45, ((2-(((S)-1-((S)-2-((4-bromophenyl)(3-(methylamino)-3-oxopropyl)carbamoyl)pyrrolidin-1-yl)-3,3-dimethyl-1-oxobutan-2-yl)carbamoyl)benzo[b]thiophen-5-yl)difluoromethyl)phosphonic acid]	1 to 10	100 to 1000
CC(C)(C)[C@H](NC(=O)c1cc2cc(C(F)(F)P(=O)(O)O)ccc2s1)C(=O)N1CCC[C@H]1C(=O)N(CCC(=O)O)c1ccc(Br)cc1 [Compound 46, 3-((S)-N-(4-bromophenyl)-1-((S)-2-(5-(difluoro(phosphono)methyl)benzo[b]thiophene-2-carboxamido)-3,3-dimethylbutanoyl)pyrrolidine-2-carboxamido)propanoic acid]	0.1 to 1	100 to 1000

Next, values leading:

Ki (STAT5A) [µM]	Ki (STAT6 protein) [nM]	Compound
> 10	> 10000	CN(C(=O)[C@@H]1CCCN1C(=O)[C@@H](NC(=O)c1cc2cc(C(F)(F)P(=O)(O)O)ccc2[nH]1)C(C)(C)C)C(c1ccccc1)c1ccccc1 [Compound 32, ((2-(((S)-1-((S)-2-(benzhydryl(methyl)carbamoyl)pyrrolidin-1-yl)-3,3-dimethyl-1-oxobutan-2-yl)carbamoyl)-1H-indol-5-yl)difluoromethyl)phosphonic acid]
> 10	> 10000	CC(C)(C)[C@H](NC(=O)c1cc2cc(C(F)(F)P(=O)(O)O)ccc2[nH]1)C(=O)N1CCC[C@H]1c1ncc(-c2ccccc2)[nH]1 [Compound 33, ((2-(((S)-3,3-dimethyl-1-oxo-1-((S)-2-(5-phenyl-1H-imidazol-2-yl)pyrrolidin-1-yl)butan-2-yl)carbamoyl)-1H-indol-5-yl)difluoromethyl)phosphonic acid]
> 10	> 10000	CC(=O)N1CCC(C(NC(=O)c2cc3cc(C(F)(F)P(=O)(O)O)ccc3[nH]2)C(=O)N2CCC[C@H]2C(=O)N2CCc3ccccc3C2)CC1 (stereo partly drawn) [Compound 34, ((2-((1-(1-acetylpiperidin-4-yl)-2-oxo-2-((S)-2-(1,2,3,4-tetrahydroisoquinoline-2-carbonyl)pyrrolidin-1-yl)ethyl)carbamoyl)-1H-indol-5-yl)difluoromethyl)phosphonic acid]
1 to 10	100 to 1000	CNC(=O)c1ccc(N(C(=O)[C@@H]2CCCN2C(=O)[C@@H](NC(=O)c2cc3cc(C(F)(F)P(=O)(O)O)ccc3s2)C(C)(C)C)c2ccc(I)cc2)cc1 [Compound 42, (difluoro(2-(((S)-1-((S)-2-((4-iodophenyl)(4-(methylcarbamoyl)phenyl)carbamoyl)pyrrolidin-1-yl)-3,3-dimethyl-1-oxobutan-2-yl)carbamoyl)benzo[b]thiophen-5-yl)methyl)phosphonic acid]
0.1 to 1	100 to 1000	COC(=O)CCN(C(=O)[C@@H]1CCCN1C(=O)[C@@H](NC(=O)c1cc2cc(C(F)(F)P(=O)(O)O)ccc2s1)C(C)(C)C)c1ccc(Br)cc1 [Compound 43]
> 10	1000 to 10000	CC(C)(C)[C@H](NC(=O)c1cc2cc(C(F)(F)P(=O)(O)O)ccc2s1)C(=O)N1CCC[C@H]1C(=O)N1CCCC12CCCC2 [Compound 58, ((2-(((S)-1-((S)-2-(1-azaspiro[4.4]nonane-1-carbonyl)pyrrolidin-1-yl)-3,3-dimethyl-1-oxobutan-2-yl)carbamoyl)benzo[b]thiophen-5-yl)difluoromethyl)phosphonic acid]
> 10	1000 to 10000	CC(C)(C)[C@H](NC(=O)c1cc2cc(C(F)(F)P(=O)(O)O)ccc2s1)C(=O)N1CCC[C@H]1C(=O)N1CCC2(CCCC2)C1 [Compound 59, ((2-(((S)-1-((S)-2-(2-azaspiro[4.4]nonane-2-carbonyl)pyrrolidin-1-yl)-3,3-dimethyl-1-oxobutan-2-yl)carbamoyl)benzo[b]thiophen-5-yl)difluoromethyl)phosphonic acid]
